{"source": "paper PMC9106635", "about": "“Stimulation of the atypical chemokine receptor 3 (ACKR3) by a small-molecule agonist attenuates fibrosis in a preclinical liver but not lung injury model” (Cellular and Molecular Life Sciences: CMLS, 2022)", "target": "hACKR3 (Homo sapiens, UniProt P25106)", "sequence (P25106 whole entry)": "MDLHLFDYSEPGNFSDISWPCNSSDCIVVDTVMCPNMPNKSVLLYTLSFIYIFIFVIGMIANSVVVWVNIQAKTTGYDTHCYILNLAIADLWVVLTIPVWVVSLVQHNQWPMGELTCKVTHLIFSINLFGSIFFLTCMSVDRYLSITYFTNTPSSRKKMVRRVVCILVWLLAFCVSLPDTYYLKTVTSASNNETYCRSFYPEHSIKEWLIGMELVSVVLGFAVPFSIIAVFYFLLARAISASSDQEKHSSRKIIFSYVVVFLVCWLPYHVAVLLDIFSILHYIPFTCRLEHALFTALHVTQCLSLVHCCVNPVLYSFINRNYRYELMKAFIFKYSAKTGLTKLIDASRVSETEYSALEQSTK", "assay": "β-arrestin2 recruitment assay (PathHunter CHO-K1 CXCR7 β-arrestin cell line)", "type": "cell-based", "set-up": "host or cells: CHO-K1 (PathHunter CXCR7 β-arrestin cell line)", "protocol": "β-arrestin2 recruitment downstream of ACKR3 activation was analyzed using the PathHunter CHO-K1 CXCR7 β-arrestin Cell Line (93-0248C2; DiscoverX). Cells were cultured in AssayComplete™ Cell Culture Kit-107 (92-3107G; DiscoverX) at 37 °C and 5% CO2. Briefly, 20,000 cells/well were seeded in AssayComplete™ Cell Plating 2 Reagent (93-0563R2A; DiscoverX) in a white 96-well plate (100 µL/well) with clear bottom (Costar, 3610) and incubated overnight at 37 °C and 5% CO2. The next day, 10 µL/well of test compound (11 × concentrated) was added and cells were incubated for 90 min at 37 °C and 5% CO2. Compounds were tested in duplicate in a 1:4 dilution series ranging from 1000 nM to 0.06 nM final concentration. After incubation, 55 µL/well of detection reagent (PathHunter Detection kit; 93-0001; DiscoverX) was added and cells were incubated for 1 h at room temperature (RT) protected from light. Finally, luminescence was measured using a FLIPR Tetra® device (Molecular Devices, Sunnyvale, CA, USA). Four parameter non-linear curve fitting (GraphPad Prism 9.0.2) was used to determine the EC50 value for β-arrestin2 recruitment.", "note": "Like-named read-outs stand apart in the source and are kept apart here."}
{"smiles": "CCc1ccn2ccnc2c1N1CCCN(C(CC(N)=O)C2CCN(C(=O)C3CC4CCC3O4)CC2)CC1", "note": "(stereo not drawn) [compound 18a]", "values": [{"measurement": "EC50", "setting": "conversion of 3.16 nM, read-out: EC50 β-arrestin2 recruitment expressed in ng/mL (converted)", "result": 3.25, "unit": "nM"}, {"measurement": "EC50", "setting": "mean ± SD of two independent experiments, read-out: EC50 β-arrestin2 recruitment", "result": "3.16 ± 0.12", "unit": "nM"}, {"measurement": "EC50", "setting": "taking into account 34% free fraction, read-out: EC50 corrected for free fraction in mouse plasma (target value) (converted)", "result": 9.95, "unit": "nM"}]}
